These are literature values, as cited in patent US20160081975A1, “SOFT GEL COMPOSITIONS AND PRE-GEL CONCENTRATES” (VIRUN, INC., priority 2014, published 2016).

For the data set the following is noted: reported value.
For the substance sucrose dipalmitate, the HLB value is 7.4.

For sucrose distearate, the HLB value is 3. As to sucrose monopalmitate, the HLB value is given as greater than 10.
